This is an account of results in paper PMC11078746 (Nature, 2024).

Data set [1] relates to WRN protein in MSI and MSS cells. In words: WRN degradation (immunoblot, ELISA). The format is cell-based, human. How it is done:
A list of all of the antibodies is provided in Supplementary Table 2. […] The plates were washed in PBS and 200 µl per well of blocking reagent added (PBS, 0.05% Tween-20, 5% skimmed milk), and the plates were incubated for a minimum of 2 h at room temperature. […] The plates were then washed and 50 µl of secondary antibody per well diluted in blocking buffer was added and the plates were incubated overnight at 4 °C. The next day, 50 µl of tertiary antibody was added per well buffer and the plates were incubated for 2 h at room temperature. […] The plates were shaken and luminescence was detected immediately on the Synergy HT microplate reader.
(Immunoblotting shows a protein as a band on a membrane.)

Data set [2] concerns the target T1, WRN D1D2RH (Asn517–Pro1238) (Homo sapiens, UniProt Q14191).
T1 construct: 10 nM WRN D1D2RH (protein construct (Asn517–Pro1238)); His tag (N, cleaved yes); ZZ tag (N, cleaved yes); made in house; host or cells: Sf21 insect cells (baculovirus)
In words: Cy5-ATPγS binding assay using TR-FRET (ATP binding). The protocol: A ratio of F665 over F620 was then calculated to determine the FRET efficiency in each well. This assay protocol was used during hit optimization to build the initial structure–activity relationship and was also adapted to 1,536-well plates for screening purposes.

Data set [3] has as its target T1, WRN D1D2RH (Asn517–Pro1238). In words: ATPase activity analysis, ADP-Glo. The format is biochemical. The protocol: (§1) We used an ADP-Glo assay kit (Promega) to monitor ATP hydrolysis. A 45-oligonucleotide with the following sequence: […], referred to as FLAP26, as described previously[45] was purchased from IDT (Integrated DNA Technologies) and used as a DNA substrate. […] The reaction was started by addition of 2.5 μl of ssDNA substrate at 0.4 nM and incubated for 30 min at room temperature. The reaction was stopped with the addition of 5 μl of the first ADP-Glo reagent and incubated for 1 h to remove the excess amount of ATP. Then, 10 μl of ATP detection reagent was added and incubated for an additional hour before reading. The luminescence output was recorded using the Pherastar reader, with a 5 min delay before reading. Each concentration of compounds was tested in duplicates in the assay plate. The compound potency (IC50 value) was determined using custom software (Novartis Helios software application) with a four-parameter sigmoid Hill-curve model. After normalization of activity values for the wells to percentage inhibition (percentage inhibition = [(high control activity − sample activity)/(high control activity − low control activity)] × 100), IC50 fitting was performed from the duplicate determinations present on each plate.

In a further data set the target is T2, RecQ1 (Homo sapiens, UniProt P46063).
T2 construct: human RecQ1-D1D2 (UniProt: P46063, Asp62–Ser482); His tag (N); made in house; host or cells: E. coli BL21(DE3), by the 'analogous procedure'
T2 sequence (P46063 62-482): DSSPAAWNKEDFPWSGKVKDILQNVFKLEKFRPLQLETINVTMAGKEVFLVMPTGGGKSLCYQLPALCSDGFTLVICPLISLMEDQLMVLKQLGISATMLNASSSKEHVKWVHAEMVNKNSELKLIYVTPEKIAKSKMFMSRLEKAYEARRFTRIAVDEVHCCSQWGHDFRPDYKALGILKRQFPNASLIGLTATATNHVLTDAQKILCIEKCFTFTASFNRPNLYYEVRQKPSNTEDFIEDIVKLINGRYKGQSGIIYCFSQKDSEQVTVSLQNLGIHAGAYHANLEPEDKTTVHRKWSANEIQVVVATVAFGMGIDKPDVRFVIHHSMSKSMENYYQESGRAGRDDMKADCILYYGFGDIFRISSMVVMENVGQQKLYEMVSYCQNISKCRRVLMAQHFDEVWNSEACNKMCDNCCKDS
In words: RecQ selectivity ATPase assay. It is filed as biochemical. The protocol:
(§2) DNA sequence allowing expression of human BLM-D1D2RH (UniProt P54132: Lys640–Gly1298) fused at the amino-terminal end to His tag followed by TEV-cleavage site, was inserted into a pET-derived vector. Protein expression was performed in BL21(DE3) cells after IPTG induction. Cells were collected and resuspended in lysis buffer (50 mM NaH2PO4, 300 mM NaCl, 1 mM TCEP, 20 mM imidazole, pH 8.0) supplemented with 2 mM MgCl2, benzonase and 0.5 mM AEBSF. Cells were lysed with an Emulsiflex C3 homogenizer. After ultracentrifugation, the lysate was loaded onto a HisTrap HP column. Bound protein was eluted with an imidazole gradient in lysis buffer. The amino-terminal tag was cleaved with TEV protease. Cleaved protein was loaded on Resource S ion-exchange column and eluted with a NaCl gradient in IEX buffer (20 mM Tris, 1 mM TCEP, 10% glycerol, 20 mM NaCl, pH 7.4). As a final step, BLM-D1D2RH protein was concentrated and loaded onto the Superdex 75 gel-filtration column pre-equilibrated with SEC buffer (50 mM Tris, 150 mM NaCl, 10% glycerol, pH 7.4). Eluted target protein was concentrated and frozen on dry ice. An analogous procedure was used for the expression and purification of human RecQ1-D1D2 (UniProt: P46063, Asp62–Ser482) and Human RecQ5-D1D2 (UniProt: O94762, Asp11–Trp453) proteins.
as §1
(§3) The same ATPase assay protocol was used with the three other RecQ protein constructs to assess the selectivity over WRN. Time-course experiments were performed to determine the best enzymatic assay conditions for each RecQ protein. The experiments were run as described above with 10 nM RecQ1 protein construct with 10 nM ssDNA substrate, 2 nM BLM protein construct with 0.2 nM ssDNA substrate and 0.5 nM RecQ5 protein construct with 2 nM ssDNA substrate, respectively.

In another data set the target is T3, RecQ5 (Homo sapiens, UniProt O94762).
T3 construct: Human RecQ5-D1D2 (UniProt: O94762, Asp11–Trp453); His tag (N); made in house; host or cells: E. coli BL21(DE3), by the 'analogous procedure'
T3 sequence (O94762 11-453): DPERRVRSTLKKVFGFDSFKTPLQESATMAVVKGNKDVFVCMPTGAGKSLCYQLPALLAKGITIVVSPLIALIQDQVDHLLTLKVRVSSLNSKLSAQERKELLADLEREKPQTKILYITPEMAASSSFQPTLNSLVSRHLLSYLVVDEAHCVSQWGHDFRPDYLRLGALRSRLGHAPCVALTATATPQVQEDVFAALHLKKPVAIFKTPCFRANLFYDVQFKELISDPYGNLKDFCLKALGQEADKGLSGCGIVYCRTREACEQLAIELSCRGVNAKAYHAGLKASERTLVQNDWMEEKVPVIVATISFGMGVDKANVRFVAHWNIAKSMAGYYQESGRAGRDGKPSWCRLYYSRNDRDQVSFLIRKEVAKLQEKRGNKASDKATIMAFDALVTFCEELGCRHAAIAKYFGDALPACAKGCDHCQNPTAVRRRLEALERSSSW
In words: RecQ selectivity ATPase assay. It is filed as biochemical. The protocol: as §2, §1, §3

A further data set can be described thus: logD / logP. The format is physicochemical. The following applies: 1-octanol/water, pH 7.4, 1-octanol and water at pH 7.4.
The nature of a further data set: Rat PK. It is filed as in vivo. The protocol:
PK parameters were determined by non-compartmental analysis. Intravenous bolus studies in mouse, rat and dog were performed at 1, 1 and 0.1 mg per kg respectively (Extended Data Table 1).

Another data set can be described thus: MDCK LE permeability. The format is in vitro ADME, canine. The conditions noted are these: dog, Fig. 1b.
The target in data set [4] is T4, WRN D1D2 WT (WRN 517–945) (Homo sapiens, UniProt Q14191).
T4 construct: the minimal D1–D2 helicase core (WRN 517–945)
T4 sequence (Q14191 517-945): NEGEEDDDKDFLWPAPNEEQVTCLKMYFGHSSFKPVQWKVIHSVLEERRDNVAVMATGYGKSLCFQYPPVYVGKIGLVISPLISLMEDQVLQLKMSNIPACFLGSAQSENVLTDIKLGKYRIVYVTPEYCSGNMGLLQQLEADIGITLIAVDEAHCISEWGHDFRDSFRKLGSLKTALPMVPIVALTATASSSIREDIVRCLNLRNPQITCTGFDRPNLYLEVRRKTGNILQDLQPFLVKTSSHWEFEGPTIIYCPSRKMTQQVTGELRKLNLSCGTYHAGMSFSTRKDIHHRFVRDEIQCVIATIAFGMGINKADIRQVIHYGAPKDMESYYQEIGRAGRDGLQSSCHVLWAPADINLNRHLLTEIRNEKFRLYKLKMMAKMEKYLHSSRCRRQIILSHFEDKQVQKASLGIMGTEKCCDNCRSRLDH
In words: ATPase assay. The following applies: read-out: Biochemical IC50 ATPase WRN D1D2 WT. The protocol: as §1

The next data set addresses T5, WRN D1D2 C727S (Homo sapiens, UniProt Q14191, C727S).
T5 construct: the minimal D1–D2 helicase core (WRN 517–945)
In words: ATPase assay. The conditions noted are these: read-out: Biochemical IC50 ATPase WRN D1D2 C727S. How it is done:
as §1

The target of a further data set is T6, WRN D1D2 C727A (Homo sapiens, UniProt Q14191, C727A).
T6 construct: the minimal D1–D2 helicase core (WRN 517–945)
T6 sequence (Q14191 517-945 C727A): as the sequence (Q14191 517-945) above, with C211A counted along it
In words: ATPase assay. The following applies: read-out: Biochemical IC50 ATPase WRN D1D2 C727A. The protocol: as §1

Another data set concerns the target T7, WRN full length (Homo sapiens, UniProt Q14191).
T7 construct: ATPase WRN full length: 0.02; made in house
In words: ATPase assay. The conditions noted are these: read-out: Biochemical IC50 ATPase WRN full length. How it is done: as §1

A further data set has as its target T8, WRN (D1D2RH) (Homo sapiens, UniProt Q14191).
T8 construct: N-terminal Avi Tag-WRN(Asn517–Pro1238)
In words: Radioactive binding assay using an SPA (saturation binding). The conditions noted are these: 10 nM WRN. How it is done: A total of 20 μl N-terminal Avi tag-WRN protein (Asn517-Pro1238) in 30 mM Tris pH 7.5, 30 mM NaCl, […], 0.02% BSA, 0.1% Pluronic F127, containing or not a fivefold higher concentration of dsDNA as compared to protein concentration, were incubated with 20 μl [^3H]-probe 6 (Extended Data Fig. 2f) for 1 h at room temperature. Then, 10 μl Streptavidin-coated PVT scintillation proximity assay (SPA) beads (Perkin Elmer, RPNQ0009) were added and the plate was read after 30 min in a TopCount luminescence reader (1 min, delay,1 min per well). The final assay concentrations were 10 nM WRN, 50 nM dsDNA (for the condition with dsDNA), a concentration range of radioligand as shown in the graphs and 50 μg per well of PVT SPA beads. The dsDNA was the same substrate as used in the DNA-unwinding assay (without labels).

In the next data set the test system is SW48 xenografts. In words: SW48 xenograft efficacy, HRO761, irinotecan and combination. The format is in vivo, mouse. The conditions noted are these: Irinotecan 60mg/kg. The protocol: All animal studies were conducted in accordance with ethics and procedures covered by permit BS-2275 and BS-1975 issued by the Kantonales Veterinäramt Basel-Stadt and in strict adherence to guidelines of the Eidgenössisches Tierschutzgesetz and the Eidgenössische Tierschutzverordnung, Switzerland. All animal studies were approved by the internal ethics committee. All animals had access to food and water ad libitum and were identified with transponders. They were housed in a specific-pathogen-free facility in IVC racks under a 12 h–12 h light–dark cycle. To establish cell-line-derived xenograft models, 6–7-week-old female athymic nude (Crl:NU(NCr)-Foxn1^nu) or SCID-BEIGE (CB17.Cg-PrkdcscidLystbg-J/Crl) mice from Charles River were engrafted subcutaneously with 5 million tumour cells in HBSS (H6648, Sigma-Aldrich). For SNU-407, Lovo, IM95, RL95.2, Ishikawa and IGROV-1, the cells were concentrated in 50% Matrigel (354234, Corning). Patient-derived xenografts were induced and expanded by transplantation as previously described. […] For the efficacy experiment, mice were randomized into groups (n = 5–6) for a mean tumour size of 100–150 mm^3. […] Blood samples were collected on day 7 and 91. […] Tumour responses are reported with the measures of tumour volumes from the treatment start. […] Animals were randomized (n = 3) and tumour samples were collected at 0, 1, 4, 8 and 24 h on the first day and then collected 4 h after the last treatment on day 3, 8, 10, 14 (including a 24 h timepoint), 17 and 21. Tumours were excised, weighed, either frozen in liquid nitrogen and cryogenic dry pulverized with the CryoPrep system (model CP-02, Covaris) or processed to FFPE after fixation. […] On day 12, blood samples were collected for PK analysis. On the last day (3 h after the last treatment), tumours were excised, weighed, frozen in liquid nitrogen and cryogenic dry pulverized for PD analysis.

Where [5] appears, read: author rebuttal, compound numbers of an earlier manuscript version, read-out: Cy5-ATPγS binding assay in TR-FRET - IC50.

T1 sequence (Q14191 517-1238): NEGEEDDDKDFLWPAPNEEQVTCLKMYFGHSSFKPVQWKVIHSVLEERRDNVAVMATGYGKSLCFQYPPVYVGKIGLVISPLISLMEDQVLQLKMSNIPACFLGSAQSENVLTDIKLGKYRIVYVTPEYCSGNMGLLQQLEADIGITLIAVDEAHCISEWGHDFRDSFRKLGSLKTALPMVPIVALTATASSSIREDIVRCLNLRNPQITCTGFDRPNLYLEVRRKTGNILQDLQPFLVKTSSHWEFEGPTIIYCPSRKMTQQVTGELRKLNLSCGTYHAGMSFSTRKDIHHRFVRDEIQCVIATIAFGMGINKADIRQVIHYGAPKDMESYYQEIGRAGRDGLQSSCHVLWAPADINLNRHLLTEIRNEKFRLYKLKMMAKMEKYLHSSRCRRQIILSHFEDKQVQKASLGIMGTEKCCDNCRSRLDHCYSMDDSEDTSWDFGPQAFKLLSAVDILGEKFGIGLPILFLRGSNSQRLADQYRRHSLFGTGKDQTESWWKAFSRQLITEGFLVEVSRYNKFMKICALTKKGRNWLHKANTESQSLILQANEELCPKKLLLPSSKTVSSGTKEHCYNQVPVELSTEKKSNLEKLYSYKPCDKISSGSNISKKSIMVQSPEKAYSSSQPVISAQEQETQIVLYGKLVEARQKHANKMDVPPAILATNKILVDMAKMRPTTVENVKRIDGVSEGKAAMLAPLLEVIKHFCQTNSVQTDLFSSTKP
T8 sequence (Q14191 517-1238): as above
T5 sequence (Q14191 517-945 C727S): as the sequence (Q14191 517-945) above, with C211S counted along it
T7 sequence (Q14191 whole entry): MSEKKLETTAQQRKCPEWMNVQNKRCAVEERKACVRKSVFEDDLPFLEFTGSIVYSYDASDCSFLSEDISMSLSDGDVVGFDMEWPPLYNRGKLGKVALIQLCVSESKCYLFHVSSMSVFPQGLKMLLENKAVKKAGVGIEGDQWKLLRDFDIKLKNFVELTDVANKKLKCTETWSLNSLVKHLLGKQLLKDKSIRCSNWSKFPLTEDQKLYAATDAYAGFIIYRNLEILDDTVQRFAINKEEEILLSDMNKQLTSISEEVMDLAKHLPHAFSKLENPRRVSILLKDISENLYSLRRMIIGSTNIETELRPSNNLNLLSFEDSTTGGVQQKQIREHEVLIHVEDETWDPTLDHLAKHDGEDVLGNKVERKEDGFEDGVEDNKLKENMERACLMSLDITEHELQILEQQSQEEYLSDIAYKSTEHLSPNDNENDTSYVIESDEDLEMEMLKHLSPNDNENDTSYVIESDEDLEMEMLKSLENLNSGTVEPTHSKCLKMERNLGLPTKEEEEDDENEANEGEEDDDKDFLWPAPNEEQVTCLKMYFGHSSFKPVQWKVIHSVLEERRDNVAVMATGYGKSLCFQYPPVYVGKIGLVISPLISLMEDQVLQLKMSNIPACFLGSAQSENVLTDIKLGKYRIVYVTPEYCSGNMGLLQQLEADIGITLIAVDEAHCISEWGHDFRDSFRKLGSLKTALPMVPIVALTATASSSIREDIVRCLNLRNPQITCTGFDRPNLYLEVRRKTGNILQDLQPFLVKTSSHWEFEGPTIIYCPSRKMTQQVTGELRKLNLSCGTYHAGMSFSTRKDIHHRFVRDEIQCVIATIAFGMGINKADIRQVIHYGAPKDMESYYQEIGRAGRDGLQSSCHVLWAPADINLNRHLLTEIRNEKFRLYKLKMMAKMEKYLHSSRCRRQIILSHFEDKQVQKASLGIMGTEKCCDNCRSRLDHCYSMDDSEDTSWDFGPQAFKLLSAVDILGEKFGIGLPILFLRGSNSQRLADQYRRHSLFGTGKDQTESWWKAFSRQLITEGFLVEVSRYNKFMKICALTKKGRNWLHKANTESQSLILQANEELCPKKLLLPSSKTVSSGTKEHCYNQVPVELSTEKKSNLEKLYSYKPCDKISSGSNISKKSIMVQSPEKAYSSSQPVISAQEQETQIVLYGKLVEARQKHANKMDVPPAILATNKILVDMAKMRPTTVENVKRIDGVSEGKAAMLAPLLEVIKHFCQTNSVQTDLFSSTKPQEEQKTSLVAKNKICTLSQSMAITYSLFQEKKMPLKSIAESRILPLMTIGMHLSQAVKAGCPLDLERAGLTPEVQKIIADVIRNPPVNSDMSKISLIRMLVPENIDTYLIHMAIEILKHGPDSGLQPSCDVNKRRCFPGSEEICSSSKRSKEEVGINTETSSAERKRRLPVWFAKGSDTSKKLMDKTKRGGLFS

With `CC[C@@]1(O)C(=O)OCc2c1cc1n(c2=O)Cc2cc3ccccc3nc2-1` [camptothecin, reference compound], in data set [1], the “WRN degradation, dependence on MSI/MSS status” value is recorded as “irrespective of their MSI/MSS status”.

The IC50 is the concentration needed to halve the response being measured. Regarding `Cc1cccc(NC(=O)Cn2c(C)cc(=O)n3nc(-c4cccs4)nc23)c1C` [compound 1], the half-maximal inhibitory concentration (IC50) in data set [2] (WRN D1D2RH, Fig. 1b, Extended Data Fig. 2b, read-out: ATP binding IC50) came out at 3 µM; in [2] (setting [5]) it was 3.3 µM; in [3] (Fig. 1b, ATP concentration not given, read-out: ATPase IC50) it was 22 µM.

Usually logD stands for the decadic logarithm of the distribution of all forms, ionised or not, between an organic phase and buffer at a given pH. Lower therefore signals a more hydrophilic compound. For orientation: Papp means the rate of passage across a membrane or cell layer, normalised by area and donor concentration. A low value points to poor permeation. On to `Cc1c(N2CCN(C(=O)c3c(F)ccc(F)c3O)CC2)c(=O)n2nc(C3=CCOCC3)nc2n1CC(=O)Nc1ccc(C(F)(F)F)cc1` [compound 2], for which the IC50 was over 100 µM at RecQ1, over 100 µM against RecQ5 and 0.009 µM in [2] (setting [5]). The compound also had a logD in the data set “logD / logP” of 3.7. Further, the “Rat PK, oral bioavailability (F)” value in the data set “Rat PK” worked out at 0 % F. Also, the apparent permeability coefficient (Papp) in the data set “MDCK LE permeability” turned out to be 2 nm/s.

For the compound `CC(=O)N1CCN(c2c(C)n(CC(=O)Nc3ccc(Cl)cc3)c3nc(N4CCN(C(=O)OC(C)(C)C)CC4)nn3c2=O)CC1` [compound 5], the IC50 in data set [2] (setting [5]) was determined as 0.013 µM; in [4], 0.25 µM; at WRN D1D2 C727S it was 25 µM; at WRN D1D2 C727A, 1.1 µM; on WRN full length, 0.11 µM; in data set [3] (Extended Data Fig. 2b, read-out: Biochemical IC50 ATPase WRN D1D2RH) it was 0.27 µM. Further, in [3] (KDNA determination, 0.5 nM WRN D1D2RH, 100 µM ATP), the “mode of action with regard to DNA” value is given as “non-competitive mode of action”.

Usually Kd stands for the equilibrium constant for the complex coming apart. For `[3H]c1cc(C(F)(F)F)cc([3H])c1NC(=O)Cn1c(C)c(N2CCN(C(C)=O)CC2)c(=O)n2nc(N3CCN(C(C)=O)CC3)nc12` [compound 6], the Kd was 0.01 µM on WRN (D1D2RH) (in absence of dsDNA) and 0.014 µM on WRN (D1D2RH) (in presence of 50 nM dsDNA).

As for `CCc1c2c(nc3ccc(OC(=O)N4CCC(N5CCCCC5)CC4)cc13)-c1cc3c(c(=O)n1C2)COC(=O)[C@]3(O)CC` [irinotecan, reference compound], the “Mean TVol (mm3)” value was determined as 254.88 mm3 in the data set with SW48 xenografts (day 0 post 1st dose); 329.29 mm3 in the data set with SW48 xenografts (day 4 post 1st dose); 550.55 mm3 with SW48 xenografts (day 7 post 1st dose); 635.45 mm3 with SW48 xenografts (day 11 post 1st dose); 640.95 mm3 in the data set with SW48 xenografts (day 14 post 1st dose); 669.98 mm3 with SW48 xenografts (day 18 post 1st dose). The “Mean TVol (mm3)” value in the data set with SW48 xenografts (day 21 post 1st dose) is 833.51 mm3.
